The text below walks through data of US11573233B2, “Systems and methods for label-free detection of analytes” (UNIVERSITY OF UTAH RESEARCH FOUNDATION, priority 2015, dated 2023).

The assay is described as follows: second harmonic imaging (SHI) of tetracaine binding to lipid bilayer array. The text has this: SH is a powerful tool for investigating small-molecule and protein interactions with membranes in a label-free manner. However, a high-throughput analog would be even more advantageous, akin to fluorescence imaging. Towards that end, SHI was implemented to measure the interactions between the local anesthetic tetracaine and a […] lipid bilayer array (MLBA) in a label-free manner allowing the effects of lipid phase and CHO content on tetracaine binding to be examined simultaneously.

Structures are written as SMILES.

With `CCCCNc1ccc(C(=O)OCCN(C)C)cc1` [tetracaine], the maximum surface excess result (effect of phospholipid unsaturation and cholesterol content) is “increases with the degree of unsaturation of the phospholipids and decreases with cholesterol in the lipid bilayers”. Further, for the setting “l.c. phase vs solid-gel phase lipids, label-free SHI”, the “binding affinity to lipid phases” value was “higher binding affinity to l.c. phase lipids than to solid-gel phase lipids”.
